Experimental data from patent US8188097B2, “Pyrazolo[1,5-A]pyrimidine compounds” (Mitsubishi Tanabe Pharma Corporation, priority 2005, dated 2012).

Biological target: T1, Human CB1 receptor (Homo sapiens, UniProt P21554)
T1 construct: host or cells: CHO cells (hCB1/CHO#C3), membrane fraction prepared in house
Test: Human CB1 receptor binding assay ([3H]-CP55940 displacement, hCB1/CHO membrane fraction)
Settings: human CB1 receptor membrane preparation, 30° C. for 90 minutes
Procedure: Human Cb1 Receptor Binding Assay
(1) Preparation of Human Cb1 Receptor (Membrane Fraction):
Human CB1-expressing cell line: hCB1/CHO#C3 (Euroscreen)
Buffer A: 50 mM tris-HCl (pH 7.5) containing ethylenediaminetetraacetic acid (2.5 mM), MgCl2 (5 mM) and sucrose (200 mM)
The receptor-expressing cells cultivated in the above medium were washed with phosphate buffer (×2) and thereto was added Buffer A (2 mL) under ice-cooling or 4° C. (the following procedures were also carried out at the same temperature). The cells were collected by using a cell-scraper, treated by a microtip-type ultrasonicator for 20 seconds (pulse-on: 2 sec, pulse-off: 1 sec) and centrifuged (500×g, 15 min). The supernatant was separated and centrifuged (43000×g, 60 min). The resultant pellet was suspended in Buffer A and homogenized with a potter-type homogenizer. To the homogenate was added an equal volume of 80% glycerol and stored at −80° C.
(2) Procedure of Cb1 Receptor Binding Assay:
Buffer B: 50 mM tris-HCl (pH 7.5) containing ethylenediaminetetraacetic acid (2.5 mM), MgCl2 (5 mM) and bovine serum albumine (2 mg/mL, fatty acid-free, SIGMA-A7030)
Buffer C: 50 mM tris-HCl (pH 7.5) containing ethylenediaminetetraacetic acid (2.5 mM), MgCl2 (5 mM) and bovine serum albumine (2 mg/mL, SIGMA-A7906)
Coating solution: 0.3% ethyleneimine polymer
Radioligand: [^3H]-CP55940 (30 nM/7992 dpm/mL) prepared by diluting 8.3 μM solution of the radioligand with Buffer B
Each well of the assay plate (96-well, Costar Code#3371) was filled with Buffer B (140 μL), a solution of each test compound in dimethylsulfoxide (20 μL, final concentration: […]), radioligand (20 μL) and membrane preparation (20 μL, 0.5 μg/20 μL) and the mixture was incubated at 30° C. for 90 minutes to proceed the binding reaction. The reaction mixture was harvested to each well of a plate presoaked with the above coating solution (Packard Unifilter GF/B, #6005177). The plate was washed with Buffer C (200 μL×10) and dried at 50° C. for 1 hour and Microscinti 40 (40 μL) was added to each well. The bound radiolabel was quantitated by scintillation counting (Top Count NXT, Packard). IC50 value of each test compound against the radioligand-binding to CB1 receptors was calculated on the basis of the quantitated radiolabel activity by using Graphpad Prism 3.02.

T1 sequence (P21554 whole entry): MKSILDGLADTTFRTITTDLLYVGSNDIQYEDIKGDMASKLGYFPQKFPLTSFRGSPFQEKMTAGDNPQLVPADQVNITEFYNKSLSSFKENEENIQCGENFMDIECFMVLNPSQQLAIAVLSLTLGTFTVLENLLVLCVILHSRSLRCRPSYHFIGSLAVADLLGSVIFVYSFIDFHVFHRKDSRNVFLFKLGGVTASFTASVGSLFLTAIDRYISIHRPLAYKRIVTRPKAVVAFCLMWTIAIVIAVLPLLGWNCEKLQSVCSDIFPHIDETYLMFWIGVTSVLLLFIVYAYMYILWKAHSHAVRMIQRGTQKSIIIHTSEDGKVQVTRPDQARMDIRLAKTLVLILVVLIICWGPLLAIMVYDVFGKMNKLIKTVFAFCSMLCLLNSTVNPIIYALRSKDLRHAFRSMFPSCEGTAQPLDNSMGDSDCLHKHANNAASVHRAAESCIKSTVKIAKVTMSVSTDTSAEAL

Compound | IC50 (nM)
O=C(NC1CSC1)c1cnn2c(-c3ccc(Cl)cc3)c(-c3ccccc3Cl)cnc12 [Example 324] | + +
Cc1nn2c(-c3ccc(Cl)cc3)c(-c3ccccc3Cl)cnc2c1C(=O)N[C@H]1CCS(=O)(=O)C1 [Example 185] | + +
CC(=O)Nc1nn2c(-c3ccc(Cl)cc3)c(-c3ccccc3Cl)cnc2c1C(=O)NC1CCS(=O)(=O)C1 (stereo not shown) [Example 224] | + +
N#Cc1ccccc1-c1cnc2c(C(=O)NN3CCCCCC3)cnn2c1-c1ccc(Cl)cc1 [Example 252] | + +
CN(NC(=O)c1cnn2c(-c3ccc(Cl)cc3)c(-c3ccccc3C#N)cnc12)c1cccc(Cl)c1 [Example 253] | + + +
O=C(NC1CCCCC1)c1cnn2c(-c3ccc(Cl)cc3)c(-c3ccccc3Cl)cnc12 [Example 10] | + +
CN(NC(=O)c1c(C(F)(F)F)nn2c(-c3ccc(Cl)cc3)c(-c3ccccc3Cl)cnc12)c1ccccn1 [Example 309] | + + +
Cc1nn2c(-c3ccc(Cl)cc3F)c(-c3ccccc3C#N)cnc2c1C(=O)NN1CCCC1 [Example 427] | + +
Cc1nn2c(-c3ccc(Cl)cc3)c(-c3ccccc3Cl)cnc2c1C(=O)CN1CCS(=O)(=O)CC1 [Example 462] | + +
Cc1nn2c(-c3ccc(Cl)s3)c(-c3ccccc3Cl)cnc2c1C(=O)NN(C)c1ccccn1 [Example 410] | + +
Cc1nn2c(-c3ccc(C(F)(F)F)cc3)c(-c3ccccc3Cl)cnc2c1S(=O)(=O)N1CCCC1 [Example 238, 6-(2-chlorophenyl)-7-(4-trifluoromethylphenyl)-2-methyl-3-(1-pyrrolidinyl)sulfonylpyrazolo[1,5-a]pyrimidine] | + +
CC(C)CNC(=O)c1cnn2c(-c3ccc(C(F)(F)F)cc3)c(-c3ccccc3Cl)cnc12 [Example 287] | + +
CN(NC(=O)c1c(N(C)S(C)(=O)=O)nn2c(-c3ccc(Cl)cc3)c(-c3ccccc3Cl)cnc12)c1ccccn1 [Example 452] | + + +
